The source of these data is patent US7414040B2, “Thrombopoietin mimetics” (SmithKline Beecham Corporation, priority 2002, dated 2008).

In this assay the target is T1, human Tpo-R (Homo sapiens, UniProt P40238).
T1 construct: expressed in transfected cells; host or cells: murine BaF3 cell line
T1 sequence (P40238 26-635): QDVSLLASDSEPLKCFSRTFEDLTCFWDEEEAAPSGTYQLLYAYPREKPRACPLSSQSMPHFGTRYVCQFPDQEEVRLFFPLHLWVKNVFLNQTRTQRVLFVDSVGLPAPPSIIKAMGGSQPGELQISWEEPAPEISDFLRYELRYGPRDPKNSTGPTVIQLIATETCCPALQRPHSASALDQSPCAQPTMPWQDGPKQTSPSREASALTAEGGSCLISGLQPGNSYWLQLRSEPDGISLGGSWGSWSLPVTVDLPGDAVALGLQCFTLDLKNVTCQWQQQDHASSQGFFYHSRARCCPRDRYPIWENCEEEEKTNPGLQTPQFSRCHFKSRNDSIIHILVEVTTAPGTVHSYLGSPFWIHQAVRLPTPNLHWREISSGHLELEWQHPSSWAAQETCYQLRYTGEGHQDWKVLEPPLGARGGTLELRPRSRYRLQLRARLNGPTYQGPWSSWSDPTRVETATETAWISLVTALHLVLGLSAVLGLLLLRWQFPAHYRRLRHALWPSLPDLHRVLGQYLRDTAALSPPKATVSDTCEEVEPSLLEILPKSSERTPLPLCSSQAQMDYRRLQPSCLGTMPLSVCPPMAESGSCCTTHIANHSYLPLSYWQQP
Briefly: BaF3/hTPO-R in vitro proliferation assay. The format is cell-based. To be noted: murine BaF3 cell line transfected with human Tpo-R. On the procedure:
Compounds of the present invention were tested for potency as mimetics of TPO in an in vitro proliferation assay using the murine BaF3 cell line transfected with human Tpo-R. Survival and growth is dependent on the presence of TPO.

What is called EC50 is the concentration giving half of the maximal effect. On to `CC1=NN(C2CCCCC2)C(=O)C1=NNc1cccc(-c2cccc(C(=O)O)c2)c1O` [Example 1, 3′-[N′-(1-cyclohexyl-3-methyl-5-oxo-1,5-dihydro-pyrazol-4-ylidene)-hydrazino]-2′-hydroxy-biphenyl-3-carboxylic acid], for which a half-maximal effect (EC50) was put at 800 nM. The “activity, % TPO” value (relative to TPO) is recorded as 160 % TPO.
